{"source": "patent US7271158B2", "about": "“Treatment of rumen acidosis with α-amylase inhibitors” (Pfizer Inc., priority 2000, dated 2007)", "key": {"[1]": {"tested_on": "acute acidosis after carbohydrate challenge in cannulated cattle", "test": "Acute acidosis model (carbohydrate challenge)", "format": "in vivo, Holstein dried off cows and heifers", "from_the_text": "Acute Acidosis Model: Assessment of Acarbose [table] Procedures: Ten Holstein dried off cows and heifers (initial weight 740±27 (SE) kg, range=606–870 kg) were group-housed during the pre-treatment period and individually housed during the experimental period. Animals were moved to a head-gate during sample collection, treatment and first challenge. Subsequently, they were sampled and dosed in their individual pens. Animals were offered approximately 5 kg alfalfa hay, 16 kg silage, 6 kg concentrate and 0.5 kg straw daily in a total mixed ration offered in two feedings (60:40 concentrate:roughage diet ). They were bedded on straw only during the pre-treatment period. Water was provided ad libitum. Animals were adapted to the lactating ration for at least 10 days before treatments were administered. From a group of 6 dry cows and 5 non-lactating heifers, ten were selected based on previous exposure to challenge and general health. Animals were paired by body weight and were randomly assigned to control and acarbose treatment groups within pair, ensuring similar distribution of heifers and cows. On days 0–6 of treatment, animals received 1.07 mg acarbose/kg dissolved in ˜200 mL water through the rumen cannula just before AM (07:30) and PM (16:00) feedings. Treatment 1 animals received an equivalent amount of water only. On days 7 and 8, each animal was administered a challenge through the cannula. When pH reached ˜4.5 and there was evidence of L-lactate production, acute acidosis was considered to be induced. When an animal experienced acute acidosis by these criteria, rumen contents were removed and the rumen inoculated with rumen contents from a donor animal. Animals were weighed on days—1 and 5 for calculation of acarbose dosing and challenge amounts. To measure rumen fluid pH animals were fitted with a harness to hold an automatic pH data recording system. The rumen pH was recorded every 10 min during the days of challenge until an animal experienced acute acidosis. Rumen fluid samples were taken (˜50 mL) from the rumen cannula through a filtered sampling tube. […] The pH was measured immediately. […] In some cases the sample was filtered through gauze before pH measurement and acid treatment. This mixture was centrifuged for 10 min at 12000 g. One aliquot of the supernatant was removed for immediate lactate analysis, one frozen for subsequent lactate analysis using Sigma kit 826. A third aliquot was transferred to an auto-sampler vial for subsequent VFA analysis. An initial determination of L-lactate was made during the study to establish acidotic status using Sigma kit 735. Subsequently D and L-lactate were re-measured for statistical analysis as described below. VFA's were measured on a Hewlett Packard 6890 series gas chromatograph fitted with an auto-sampler and flame ionisation detector. The acids were resolved on a SGE Ltd. 25 metre BP21 column (0.33 mm O.D., 0.22 mm I.D. 0.25 um film thickness). Nitrogen was used as the carrier gas with a flow rate of 1.9 ml/min. The oven temperature was 165° C., and injection ports and detectors were held at 250° C. Concentrations were calculated by using crotonic acid as an internal standard, and the system was calibrated using a standard solution containing acetic, propionic, butyric, iso-valeric and n-valeric acids."}, "[2]": {"tested_on": "bacterial glucosidase activity from bovine rumen fluid cell suspension", "test": "Rumen fluid glucosidase assay", "format": "biochemical, bovine rumen bacteria", "details": "rumen fluid glucosidase screen, maltose substrate", "description": "Rumen Fluid Glucosidase Assay Protocol This assay is used to determine IC50 values for inhibitors of bacterial glucosidase activity from bovine rumen fluid cell suspension (RFCS) using a colorimetric assay. The assay measures conversion of maltose into glucose. Rumen fluid cells are incubated with maltose in the presence of inhibitors, and the amount of glucose produced is assessed using a red colourimetric endpoint. The higher the level of inhibition the lower the glucose produced and the less red colour produced. The plates are read at 450 nm. Main reaction: • Maltose+glucosidase→glucose Glucose assay • Glucose+ATP→[…] and ADP (Hexokinase and Mg^2+) • […] and NADP→6-phosphogluconate (6-PG) and NADPH • NADPH+phenazine methosulfate ([…] (iodonitrotetrazolium chloride)→[…] is deep red coloured. […] The rumen fluid was collected into pre-warmed vacuum flasks. It was then filtered through a double layer of absorbent gauze (Absorbent gauze BP, GAUZ 4 from Robert Bailey plc, Stockport) to remove hay and feed particles. The liquid was centrifuged at a relative centrifugal force of 650 for 15 minutes to remove food particles and protozoa. The supernatant was decanted into fresh tubes and centrifuged at a relative centrifugal force of 23,300 for 60 minutes. The supernatant and the loose top layer of the pellet were discarded. The pellet was resuspended in PBS at 1:8 of original volume i.e. 50 ml of PBS for the pellet from 400 ml of rumen fluid, and frozen at -20° C. When required for use the cells were thawed by standing the tube in cold water, and then diluted to […] of cells/well (45 μl/ml). Test compounds or controls were dispensed into the 96-well assay plate at 2 μl/well, followed by 50 μl per well of 10 mM maltose and 50 μl/well of rumen fluid cell suspension. The plate was incubated at 37° C. for 1 hour. Sigma glucose detection kit […] was reconstituted by addition of 17 ml of Millipore water and 4 ml of colour reagent to each vial. 100 μl of this solution was added per well and the plate returned to the 37° C. incubator for 45 minutes. The plate was then read at 450 nm. Active compounds cause a reduction in the optical density readings when compared to the no-inhibitor control wells."}, "[3]": {"tested_on": "S. aureus", "test": "Minimum inhibitory concentrations in aerobes (agar dilution)"}}, "data": [{"compound": "CC1OC(OC2C(CO)OC(OC3C(CO)OC(O)C(O)C3O)C(O)C2O)C(O)C(O)C1NC1C=C(CO)C(O)C(O)C1O", "note": "(centres unmarked) [Acarbose, acarbose]", "values": [{"measurement": "Group mean D-Lactate", "setting": "[1]; 0 hours post second challenge", "value": 0.67, "unit": "mM"}, {"measurement": "Group mean L-Lactate", "setting": "[1]; 0 hours post second challenge", "value": 0.35, "unit": "mM"}, {"measurement": "Group mean Total-Lactate", "setting": "[1]; 0 hours post second challenge", "value": 1.02, "unit": "mM"}, {"measurement": "acute acidosis following carbohydrate challenge", "setting": "[1]; 1.07 mg/kg BW BID 7 days pre-challenge, via cannula", "value": "prevented acute acidosis"}, {"measurement": "Group mean D-Lactate", "setting": "[1]; 3 hours post second challenge", "value": 3.63, "unit": "mM"}, {"measurement": "Group mean L-Lactate", "setting": "[1]; 3 hours post second challenge", "value": 1.28, "unit": "mM"}, {"measurement": "Group mean Total-Lactate", "setting": "[1]; 3 hours post second challenge", "value": 4.91, "unit": "mM"}, {"measurement": "Group mean D-Lactate", "setting": "[1]; 5 hours post second challenge", "value": 10.91, "unit": "mM"}, {"measurement": "Group mean L-Lactate", "setting": "[1]; 5 hours post second challenge", "value": 3.08, "unit": "mM"}, {"measurement": "Group mean Total-Lactate", "setting": "[1]; 5 hours post second challenge", "value": 13.99, "unit": "mM"}, {"measurement": "Group mean D-Lactate", "setting": "[1]; 7 hours post second challenge", "value": 18.00, "unit": "mM"}, {"measurement": "Group mean L-Lactate", "setting": "[1]; 7 hours post second challenge", "value": 4.93, "unit": "mM"}, {"measurement": "Group mean Total-Lactate", "setting": "[1]; 7 hours post second challenge", "value": 22.93, "unit": "mM"}, {"measurement": "rumen pH", "setting": "[1]; after second carbohydrate challenge, all treated cattle, 1.07 mg/kg BW BID 7 days pre-challenge, via cannula", "value": "above 5.0"}, {"measurement": "lactate level in rumen fluid", "setting": "[1]; after second challenge, all acarbose-treated animals (four of five controls >50 mM)", "value": "remained at zero"}, {"measurement": "L-lactate production in response to the load", "setting": "[1]; twice a day treatment", "value": "blocked"}, {"measurement": "pH responses to a high carbohydrate load", "setting": "[1]; twice a day treatment", "value": "reduced"}, {"measurement": "IC50", "setting": "[2]", "value": 1080, "unit": "nM"}, {"measurement": "MIC", "setting": "[3]; S. aureus 3.4", "value": ">128", "unit": "µg/mL"}, {"measurement": "MIC", "setting": "[3]; S. aureus 3.5", "value": ">128", "unit": "µg/mL"}, {"measurement": "MIC", "setting": "[3]; S. aureus 5.1", "value": ">128", "unit": "µg/mL"}, {"measurement": "MIC", "setting": "[3]; S. aureus 6.1", "value": ">128", "unit": "µg/mL"}, {"measurement": "MIC", "setting": "[3]; S. aureus 8.2", "value": ">128", "unit": "µg/mL"}, {"measurement": "MIC", "setting": "[3]; S. aureus 8.3", "value": ">128", "unit": "µg/mL"}, {"measurement": "MIC", "setting": "[3]; S. aureus 9.3", "value": ">128", "unit": "µg/mL"}, {"measurement": "MIC", "setting": "[3]; S. aureus 10.3", "value": ">128", "unit": "µg/mL"}, {"measurement": "MIC", "setting": "[3]; S. aureus 10.4", "value": ">128", "unit": "µg/mL"}, {"measurement": "MIC", "setting": "[3]; Staphylococcus aureus", "value": "> 128", "unit": "µg/mL"}, {"measurement": "MIC", "setting": "[3]; Staphylococcus aureus, NCTC6571", "value": "> 128", "unit": "µg/mL"}]}]}
